The values that follow come from paper PMC9326216, “Treatment of Cardiovascular Dysfunction with PDE3-Inhibitors in Moderate and Severe Hypothermia—Effects on Cellular Elimination of Cyclic Adenosine Monophosphate and Cyclic Guanosine Monophosphate” (Frontiers in Physiology, 2022).

SMILES strings stand for the structures. Like-named read-outs stand apart in the source and are kept apart here.

In the data set the target is T1, ABCC4 (Homo sapiens, UniProt O15439).
T1 sequence (O15439 1-1325): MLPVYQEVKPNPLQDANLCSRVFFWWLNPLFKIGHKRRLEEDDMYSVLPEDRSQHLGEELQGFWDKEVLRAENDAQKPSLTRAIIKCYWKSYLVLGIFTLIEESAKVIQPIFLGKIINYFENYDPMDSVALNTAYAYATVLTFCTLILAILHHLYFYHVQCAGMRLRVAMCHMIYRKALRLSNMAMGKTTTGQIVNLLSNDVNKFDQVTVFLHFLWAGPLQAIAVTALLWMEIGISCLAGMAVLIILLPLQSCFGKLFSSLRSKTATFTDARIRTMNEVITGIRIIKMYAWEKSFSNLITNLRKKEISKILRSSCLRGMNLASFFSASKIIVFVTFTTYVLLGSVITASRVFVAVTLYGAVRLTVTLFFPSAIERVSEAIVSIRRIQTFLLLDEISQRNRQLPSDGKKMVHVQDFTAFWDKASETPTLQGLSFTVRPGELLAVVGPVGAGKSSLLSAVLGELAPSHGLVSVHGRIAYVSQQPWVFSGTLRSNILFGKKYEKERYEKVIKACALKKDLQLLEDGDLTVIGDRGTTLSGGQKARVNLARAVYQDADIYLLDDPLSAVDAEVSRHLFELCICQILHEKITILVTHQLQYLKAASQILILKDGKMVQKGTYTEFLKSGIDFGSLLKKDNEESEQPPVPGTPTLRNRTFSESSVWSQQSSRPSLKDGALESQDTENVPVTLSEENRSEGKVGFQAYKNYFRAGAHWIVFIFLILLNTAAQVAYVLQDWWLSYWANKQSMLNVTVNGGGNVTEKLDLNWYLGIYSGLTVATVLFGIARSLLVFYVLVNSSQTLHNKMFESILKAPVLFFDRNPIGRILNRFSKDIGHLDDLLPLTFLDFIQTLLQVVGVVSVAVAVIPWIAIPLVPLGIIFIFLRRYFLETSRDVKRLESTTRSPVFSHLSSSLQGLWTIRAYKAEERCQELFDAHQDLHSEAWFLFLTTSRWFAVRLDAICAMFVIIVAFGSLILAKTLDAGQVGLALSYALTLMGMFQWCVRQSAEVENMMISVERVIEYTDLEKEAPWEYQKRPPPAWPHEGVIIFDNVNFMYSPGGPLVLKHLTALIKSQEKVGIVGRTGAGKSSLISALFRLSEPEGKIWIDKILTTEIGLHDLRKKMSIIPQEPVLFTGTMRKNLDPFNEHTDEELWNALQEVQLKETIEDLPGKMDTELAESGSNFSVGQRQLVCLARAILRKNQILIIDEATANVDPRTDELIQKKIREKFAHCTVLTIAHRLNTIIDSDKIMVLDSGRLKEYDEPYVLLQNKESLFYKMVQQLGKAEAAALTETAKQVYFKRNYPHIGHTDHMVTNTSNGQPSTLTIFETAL
In words: biochemical. The format is biochemical. Here is the method:
Freshly collected EDTA blood from healthy donors (n = 35) was prepared at 0°C–4°C, starting by separating the erythrocytes from plasma by centrifugation at 2,300 g for approximately 15 min. […] Lysis followed thereafter, with ten volumes of 5 mM Tris-HCl, 0.5 mM EGTA, 4 mM KCl (pH 8.1) and washed by repeated centrifugation at 20,000 g for 20 min and resuspension in the same buffer. Vesiculation was initiated by adding 39 volumes of a […] buffer ([…] Tris-HCl, pH 8.2) to one volume of cell suspension and completed by forcing the solution five times through a 27-gauge syringe needle to promote homogenization of the membranes. […] The resulting IOVs, which still contained ABC-transporters in the membrane, enabled us to control the intracellular environment, in this case the surrounding medium, and collect the cyclic nucleotides within. […] Radioactive labeled (^3H)-cAMP or (^3H)-cGMP (Perkin Elmer, Boston, MA, United States) were added to the incubation solutions in the concentration 20 and 2 μM, respectively, depending on the transporter examined, together with the appointed study drug in concentrations up to 1 mM. […] Next step was to collect the IOVs, which was done by filtration through a nitrocellulose membrane (Bio-Rad Laboratories, Feldkirchen, Germany), and then drying it. The resulting collection of radioactivity upon the filter, was later quantified by using a Packard TopCount NXT (Packard, Downers Grove, IL, United states) after adding scintillation fluid (MicroScint-O, PerkinElmer, Groningen, Netherlands).
IC50 and Ki values were calculated for each of the drugs, both for their ability to inhibit cAMP- and cGMP- efflux, as well as PDE3 and PDE5 activity. […] Inhibition curves were created accordingly, both with and without adjustment for normothermic control.

Consider `Nc1cc(-c2ccncc2)c[nH]c1=O` [Amrinone], for which the IC50 (28°C, cAMP-efflux, inside-out vesicles, 20 µM 3H-cAMP, 60 min, read-out: ABCC4 IC50) turned out to be 8.42 ± 4.81 µM; the IC50 (32°C, cAMP-efflux, inside-out vesicles, 20 µM 3H-cAMP, 60 min, read-out: ABCC4 IC50) was determined as 5.49 ± 2.25 µM; the IC50 (34°C, cAMP-efflux, inside-out vesicles, 20 µM 3H-cAMP, 60 min, read-out: ABCC4 IC50) was 1.21 ± 0.1 µM; the IC50 (37°C, cAMP-efflux, inside-out vesicles, 20 µM 3H-cAMP, 60 min, read-out: ABCC4 IC50) was determined as 4.65 ± 3.21 µM. The Ki is, setting by setting: (28°C, cAMP-efflux, inside-out vesicles, read-out: ABCC4 Ki) 5.11 ± 2.91 µM; (32°C, cAMP-efflux, inside-out vesicles, read-out: ABCC4 Ki) 3.33 µM; (34°C, cAMP-efflux, inside-out vesicles, read-out: ABCC4 Ki) 0.73 ± 0.058 µM; (37°C, cAMP-efflux, inside-out vesicles, read-out: ABCC4 Ki) 2.82 µM.

With `C[C@@H]1CC(=O)NN=C1c1ccc(NN=C(C#N)C#N)cc1` [Levosimendan], the “Drug selectivity (IC50)/(IC50): (cAMP-efflux)/(PDE3) inhibition” value runs as follows: (28°C) 270.65; (28°C, listed as L) 270.7; (32°C) 85.98; (34°C) 43.45; (37°C) 28.76. For the same compound, the IC50 runs as follows: (28°C, Table 3, read-out: ABCC5 IC50 (Table 3)) 27.2 ± 21.3 µM; (32°C, Table 3, read-out: ABCC5 IC50 (Table 3)) 16.5 ± 5.56 µM; (34°C, Table 3, read-out: ABCC5 IC50 (Table 3)) 12.7 ± 6.6 µM; (37°C, Table 3, read-out: ABCC5 IC50 (Table 3)) 9.41 ± 5.91 µM. Further, the Ki amounted to 16.5 ± 12.9 µM (28°C, Table 3, read-out: ABCC5 Ki (Table 3)); 10 ± 3.37 µM (32°C, Table 3, read-out: ABCC5 Ki (Table 3)); 7.73 ± 4 µM (34°C, Table 3, read-out: ABCC5 Ki (Table 3)); 5.71 ± 3.58 µM (37°C, Table 3, read-out: ABCC5 Ki (Table 3)).

One may read the IC50 as the concentration at which inhibition is half-maximal. Broadly, the Ki is a measure of affinity in units of concentration, obtained from inhibition or displacement.
